Measured values: patent US20090081120A1, “Methods and Compositions for Increasing Patient Tolerability During Myocardial Imaging Methods” (CV Therapeutics, Inc., priority 2006, published 2009)

Tests used:
[1] = system: conscious dogs; assay: Regadenoson-induced changes in hemodynamics (MAP, HR, LVSP, LV dP/dtMax) with and without caffeine in conscious dogs; type: in vivo, dog; conditions: for increase in peak HR from baseline: p<0.05 vs control
Procedure: (§1) Sixteen chronically instrumented male mongrel dogs weighing from 22-30 kg were used in the study. The animal protocol was approved by the Institutional Animal Care and Use Committee of New York Medical College and conforms to the Guide for the Care and Use of Laboratory Animal by the United States National Institutes of Health.
(§2) Dogs were sedated with acepromazine (0.3 mg/kg, IM) and anesthetized with pentobarbital sodium (25 mg/kg, IV). After intubation, dogs were artificially ventilated with room air. A thoracotomy was made in the fifth intercostal space using sterile techniques. A Tygon catheter (Cardiovascular Instruments, Wakefield, Mass.) was inserted into the descending thoracic aorta and another one was inserted into the left atrium. In 9 dogs, an ultrasound flow transducer (Transonic Systems, Ithaca, N.Y.) was placed around the left circumflex coronary artery. A solid-state pressure gauge (P6.5, Konisberg Instruments, Pasadena, Calif.) was placed into the left ventricle through the apex. The chest was closed in layers. The catheters and wires were tunneled subcutaneously and externalized through the skin at the back of the dog's neck. Dogs were allowed to recover from the surgery before experiments were performed, and were trained to lie on a table.
(§3) Phasic arterial pressure was measured by connecting the aortic catheter to a strain gauge transducer (P23 ID, LDS Test and Measurement, Valley View, Ohio). Left ventricular pressures were measured by the solid pressure gauge. CBF (mL/min) was measured from an ultrasound flow transducer using a Transonic flowmeter (T206, Transonic Systems, Ithaca, N.Y.). Two indices were used to describe the Regadenoson-induced coronary vasodilation: 1) the maximum increase in CBF and 2) the duration of the 2-fold increase in CBF (the period of time that CBF was elevated to a level ≧2-fold of baseline CBF). All pressure and flow data were acquired and analyzed using a Ponemah System (Version 3.30 or 4.20, LDS Test and Measurement, Valley View, Ohio). MAP and HR were calculated from phasic blood pressure, and LV dP/dtMax was calculated from the left ventricular systolic pressure.
(§4) On the day of an experiment, a dog was placed on a table, where it lay quietly during the experiment. A catheter was inserted into a peripheral vein in the leg and attached to an infusion line to administer drugs without disturbing the dog. The experiment was begun after MAP, HR and CBF were stable.
(§5) Regadenoson was supplied by CV Therapeutics, Inc. as a sterile stock solution (Lot#: 803604, 0.08 mg/mL), that was made using 15% Propylene Glycol (pH 7) and was diluted in normal saline before injection.
The statistical significance of a difference between the value of a parameter at baseline and at the indicated time point after drug administration was determined using a One-Way Repeated Measures ANOVA followed by Tukey's Test. […] Results with p<0.05 were considered to be significant. A computer-based software package (SigmaStat 2.03) was used for statistical analysis. All data are presented as Mean±SEM.

[2] = system: normal subjects; assay: Safety and tolerability of regadenoson with and without prior caffeine; type: in vivo, human
Procedure: (§6) 15O water was used as the radionuclide in the PET scans. There was a 1- to 14-day washout period between dosing days. Blood samples and measures of safety were collected until 120 minutes after study drug administration.
Safety measures included adverse events (AEs), serious adverse events, vital signs (HR and BP), ECG, concomitant medications, and a tolerability questionnaire. All available data from subjects who received the single dose of regadenoson were to be included in the statistical summaries.
ECG intervals and changes from baseline values in ECG intervals were to be presented, as were occurrences of rhythm or conduction abnormalities. Concomitant medication usage was to be summarized.
Tolerability questionnaire responses were to be analyzed using the Wilcoxen rank sum test (“How did you feel?” question) and the exact Cochran-Mantel-Haenszel test (Day 2—only question “How did this test compare to the first test?”).

[3] = system: conscious dogs; assay: Regadenoson-induced coronary vasodilation (CBF) with and without caffeine in conscious dogs; type: in vivo, dog; conditions: for change of the maximum increase in CBF induced by Regadenoson vs control: p>0.05
Procedure: as §1, §2, §3, §4
In 4 dogs, two doses of Regadenoson (5 μg/kg, IV) were given 90 min apart (without blood sampling) to determine if there is tachyphylaxis of Regadenoson-induced coronary vasodilation.
as §5
The statistical significance of a difference between the value of a parameter at baseline and at the indicated time point after drug administration was determined using a One-Way Repeated Measures ANOVA followed by Tukey's Test. The statistical significance of a difference between responses to Regadenoson in the absence and presence of caffeine was determined using a Two-Way Repeated Measures ANOVA followed by Tukey's Test. Results with p<0.05 were considered to be significant. A computer-based software package (SigmaStat 2.03) was used for statistical analysis. All data are presented as Mean±SEM.

[4] = Plasma regadenoson concentrations after IV injection in conscious dogs; conditions: effect of caffeine at 1, 2, 4 or 10 mg/kg
Procedure: Each dog received an IV injection of 5 μg/kg of Regadenoson. […] LVSP, LV dP/dtMax, MAP, HR and CBF were recorded continuously. Blood samples were taken from the left atrial catheter at 1, 3, 5, 15, 30, 45 and 60 min following injections of Regadenoson.

[5] = system: normal subjects; assay: Crossover PET study of regadenoson-induced myocardial blood flow (coronary flow reserve) with caffeine or placebo; type: in vivo, human
Procedure: as §6
Open-label study drug was supplied as sterile stock solution in single-use vials each containing 5 mL of regadenoson (0.08 mg/mL). Regadenoson, 400 μg, was administered as a rapid bolus, through an iv catheter over approximately 10 seconds, followed immediately by a 5 mL saline flush.
On each of 2 study days, subjects received a single dose of regadenoson, administered intravenously as a rapid (10-second) bolus of 5 mL, followed by a 5 mL saline flush. There was a 1- to 14-day washout period between doses.
The CVT tracking number for the placebo capsules was 1341 (Leg 2).
The primary efficacy measure was the log coronary flow reserve (CFR), which is the ratio of stress MBF after regadenoson dosing to the resting MBF.
The data were also to be analyzed using Wilcoxon's rank-sum test.

[6] = after regadenoson 400 μg IV dosing
[7] = regadenoson 400 μg IV, at any time, 25/43 subjects
[8] = regadenoson 5 μg/kg IV in the presence of caffeine 1 mg/kg
[9] = regadenoson 5 μg/kg IV in the presence of caffeine 2 mg/kg
[10] = regadenoson 400 μg IV, caffeine 200 mg po
[11] = caffeine 200 mg po before regadenoson 400 μg IV

Structure (SMILES): CNC(=O)c1cnn(-c2nc(N)c3ncn([C@@H]4O[C@H](CO)[C@@H](O)[C@H]4O)c3n2)c1 [Regadenoson, (1-{9-[(4S,2R,3R,5R)-3,4-dihydroxy-5-(hydroxymethyl)oxolan-2-yl]-6-aminopurin-2-yl}pyrazol-4-yl)-N-methylcarboxamide]
- decrease in MAP (peak) from baseline ([1]; regadenoson 5 μg/kg IV in the absence of caffeine, baseline 102±2 mm Hg, n=9): 15±2%
- increase in HR (peak) from baseline ([1]; regadenoson 5 μg/kg IV without caffeine, baseline 80±4 beats/min, n=9): 114±14%
- decrease in LVSP (peak) from baseline ([1]; regadenoson 5 μg/kg IV without caffeine, baseline 139±5 mm Hg, n=8): 9±1%
- increase in LV dP/dtMax (peak) from baseline ([1]; regadenoson 5 μg/kg IV, baseline 3240±196 mm Hg/s): 65±7%
- QTc prolongation (>500 msec and change of >60 msec) by ECG analysis, not reported as AE [2, 6]: one subject
- first degree AV block by ECG analysis, not reported as AE [2, 6]: one subject
- subjects with sensation of heaviness ([2]; regadenoson 400 μg IV): 28%
- subjects with paraesthesia ([2]; regadenoson 400 μg IV, 8/43 subjects): 19%
- subjects with headache ([2]; regadenoson 400 μg IV, 12/43 subjects): 28%
- subjects with flushing ([2]; regadenoson 400 μg IV, 13/43 subjects): 30%
- subjects with palpitations ([2]; regadenoson 400 μg IV, 21/43 subjects): 49%
- subjects with dyspnoea ([2]; regadenoson 400 μg IV, 24/43 subjects): 56%
- subjects with AEs: ear and labyrinth disorders ([2]; regadenoson 400 μg IV, at any time, 1/43 subjects): 2%
- subjects with AEs: gastrointestinal disorders ([2]; regadenoson 400 μg IV, at any time, 2/43 subjects): 5%
- subjects with AEs: general disorders and administration site conditions ([2]; regadenoson 400 μg IV, at any time, 11/43 subjects): 26%
- subjects with AEs: musculoskeletal and connective tissue disorders ([2]; regadenoson 400 μg IV, at any time, 12/43 subjects): 28%
- subjects with AEs: vascular disorders ([2]; regadenoson 400 μg IV, at any time, 13/43 subjects): 30%
- subjects with AEs: nervous system disorders ([2]; regadenoson 400 μg IV, at any time, 18/43 subjects): 42%
- subjects with AEs: cardiac disorders [2, 7]: 58%
- subjects with AEs: respiratory, thoracic and mediastinal disorders [2, 7]: 58%

Structure (SMILES): Cn1c(=O)c2c(ncn2C)n(C)c1=O [Caffeine, caffeine]
- Baseline values of CBF before and after caffeine treatment ([3]; 45 min after 1, 2, 4, and 10 mg/kg caffeine): not significantly different
- change of the maximum increase in CBF induced by Regadenoson vs control ([3]; regadenoson 5 μg/kg IV 45 min after caffeine 1 mg/kg IV): 2±3%
- change of the maximum increase in CBF induced by Regadenoson vs control ([3]; regadenoson 5 μg/kg IV 45 min after caffeine 2 mg/kg IV): −0.7±3%
- change of the maximum increase in CBF induced by Regadenoson vs control ([3]; regadenoson 5 μg/kg IV 45 min after caffeine 4 mg/kg IV): −16±5%
- change of the maximum increase in CBF induced by Regadenoson vs control ([3]; regadenoson 5 μg/kg IV 45 min after caffeine 10 mg/kg IV): −13±8%
- peak decrease in MAP from baseline ([1]; regadenoson 5 μg/kg IV in the presence of 4 mg/kg caffeine): 2±5%
- decrease in LVSP from control ([1]; regadenoson 5 μg/kg IV in the presence of 4 mg/kg of caffeine, p>0.05): 1±5%
- increase in MAP from baseline ([1]; regadenoson 5 μg/kg IV in the presence of 10 mg/cg caffeine, insignificant): 9±6%
- increase in LVSP from control ([1]; regadenoson 5 μg/kg IV in the presence of 10 mg/kg caffeine, significant): 11±7%
- decrease in LVSP from baseline [1, 8]: 9±3%
- peak decrease in MAP from baseline [1, 8]: 13±2%
- decrease in LVSP from baseline [1, 9]: 6±2%
- peak decrease in MAP from baseline [1, 9]: 13±1%
- increase in peak HR from baseline [1, 9]: 109±21%
- increase in peak HR from baseline ([1]; regadenoson 5 μg/kg IV in the presence of caffeine 4 mg/kg): 79±20%
- increase in peak HR from baseline ([1]; regadenoson 5 μg/kg IV in the presence of caffeine 10 mg/kg): 74±16%
- Pharmacokinetic profiles of Regadenoson [4]: not changed
- change in CFR with caffeine ([5]; caffeine 200 mg po vs placebo before regadenoson 400 μg IV): no change in CFR detected
- change in CFR (printed: not ≧20%) ([5]; caffeine 200 mg po vs placebo before regadenoson 400 μg IV, 95% confidence): < 20%
- exponentiated lower limit of the 90% confidence interval for log CFR (caffeine versus placebo difference) [5, 10]: 0.80
- exponentiated lower limit of the 95% confidence interval for log CFR (caffeine versus placebo difference) [5, 10]: 0.78
- exponentiated upper limit of the 90% confidence interval for log CFR (caffeine versus placebo difference) [5, 10]: 1.06
- exponentiated upper limit of the 95% confidence interval for log CFR (caffeine versus placebo difference) [5, 10]: 1.08
- effect of caffeine on the severity of AEs [2, 11]: attenuated
- overall incidence of AEs between the placebo and caffeine groups [2, 11]: no difference
- effect of caffeine on the HR increase caused by regadenoson ([2]; caffeine 200 mg po before regadenoson 400 μg IV, p<0.001): attenuated
- tolerability questionnaire: feeling after the caffeine test vs after the placebo test ([2]; caffeine 200 mg po, regadenoson 400 μg IV, p<0.001): felt better
- tolerability questionnaire: comfort during the test ([2]; test with caffeine 200 mg po vs placebo, regadenoson 400 μg IV, p<0.001): felt more comfortable
